Measured values from patent US7265260B2, “Transgenic non-human mammals expressing constitutively activated tyrosine kinase receptors” (Bristol-Myers Squibb Company, priority 2002, dated 2007).

Test system: IGF1R Sal tumor cell line
Assay: Cytotoxicity assay: inhibition of cell proliferation by [3H]-thymidine incorporation
Format: cell-based
Details: IGF-1R-Sal, IGF1R Sal (CD8-IGF1R) cell line from transgenic mouse xenograft tumor, 72 h exposure, read-out: Cytotoxicity Assay IC50 (nM) against IGF1R Sal tumor cell line
Protocol: The proliferative activity of two IGF1R inhibitors in cells was evaluated in vitro against a cell line derived from a xenograft tumor generated in a transgenic mouse, IGF1R Sal (CD8-IGF1R), which was engineered to overexpress the catalytic domain of the human IGF1R. The two IGF1R inhibitors evaluated were a benzimidazole compound as described in WO02/079192 and U.S. application Ser. No. 10/263,448, hereby incorporated by reference, and paclitaxel. Inhibition of cellular proliferation was also determined in a variety of human tumor xenograft cell lines including, Colo205 (colon), Geo (colon), RD1 (rhabdomyosarcoma), H3396 (breast), and MDA PCa2b (prostate). Proliferation was evaluated by incorporation of [^3H]-thymidine into DNA after a 72 hour exposure to reagents. Cells were plated at 1,500 cells/well in 96-well microtiter plates and 24 hours later cells were exposed to a range of drug concentrations. After 72 hours incubation at 37° C., cells were pulsed with 4 μCi/ml [6-^3H] thymidine (Amersham Pharmacia Biotech, UK) for 3 hours, trypsinized, harvested onto UniFilter-96, GF/B plates (PerkinElmer, Boston, Mass.), and scintillation was measured on a TopCount.NXT (Packard, Conn.). Results are expressed as an IC50, which is the drug concentration required to inhibit cell proliferation by 50% to that of untreated control cells.

Which IC50 does the source give for `CC(=O)O[C@H]1C(=O)[C@@]2(C)[C@H]([C@H](OC(=O)c3ccccc3)[C@]3(O)C[C@H](OC(=O)[C@H](O)[C@@H](NC(=O)c4ccccc4)c4ccccc4)C(C)=C1C3(C)C)[C@]1(OC(C)=O)CO[C@@H]1C[C@@H]2O` [paclitaxel] here?
The IC50 was 2.9 nM.
